Here are results for ten compounds from patent publication US9650339B2, “Inhibitors of histone demethylases” (Gilead Sciences, Inc., priority 2013, dated 2017).

Usually IC50 stands for the concentration that inhibits the measured activity by half. For orientation: EC50 means the midpoint of the concentration-response curve. A higher EC50 goes with a less potent agent.

In one test the target is T1, KDM2B (FBXL10) (Homo sapiens, UniProt Q8NHM5).
T1 sequence (Q8NHM5 1-650): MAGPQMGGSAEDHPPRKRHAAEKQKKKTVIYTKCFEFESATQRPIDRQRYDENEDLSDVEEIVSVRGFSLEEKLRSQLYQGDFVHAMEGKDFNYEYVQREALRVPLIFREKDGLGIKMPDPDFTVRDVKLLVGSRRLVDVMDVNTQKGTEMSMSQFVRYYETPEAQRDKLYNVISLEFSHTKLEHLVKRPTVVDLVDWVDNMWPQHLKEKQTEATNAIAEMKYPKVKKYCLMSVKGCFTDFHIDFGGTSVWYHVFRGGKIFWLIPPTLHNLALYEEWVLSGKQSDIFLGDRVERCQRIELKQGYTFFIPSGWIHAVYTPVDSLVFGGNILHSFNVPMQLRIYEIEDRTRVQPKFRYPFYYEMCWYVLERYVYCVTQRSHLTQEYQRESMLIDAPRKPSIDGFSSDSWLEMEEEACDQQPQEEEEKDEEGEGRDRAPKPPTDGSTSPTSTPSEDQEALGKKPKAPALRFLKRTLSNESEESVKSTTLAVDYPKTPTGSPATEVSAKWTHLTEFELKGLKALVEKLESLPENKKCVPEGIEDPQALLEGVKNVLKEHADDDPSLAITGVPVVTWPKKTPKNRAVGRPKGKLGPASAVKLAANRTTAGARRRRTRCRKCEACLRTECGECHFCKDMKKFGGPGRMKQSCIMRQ
As to the kind of experiment: Histone lysine demethylase AlphaLISA assay, KDM2B. The format is biochemical. Conditions: read-out: KDM2B HDME Inhibition IC50. As to the method: (§1) Assays are performed analogously to the protocol described by PerkinElmer (Roy et al. PerkinElmer Technical Note: AlphaLISA #12, April 2011)
(§2) Enzymes are dissolved in enzyme buffer and incubated for 10 min before being added to 3% DMSO solutions of compounds in enzyme buffer. Incubated for another 10 minutes, before substrate solution is added and the reaction mixture is incubated at room temperature. 10 μL acceptor beads, suspended in Epigenetic Buffer (Perkin Elmer AL008) from stock, are added and the suspension is incubated in the dark at room temperature, before a suspension of streptavidin donor beads (Perkin Elmer 6760002) in Epigenetic Buffer is added. After incubation at room temperature in the dark the plates are read. […]
BH3K36M2: RKAAPATGGVK(Me2)KPHRYRPGTVK-(BIOTIN)? (Anaspec)
(§3) Substrate Solution: Substrate, 25 μM L-Asc, and 10 μM α-KG in Buffer A.
(In general: In Alpha technology, singlet oxygen from a donor bead excites a nearby acceptor bead.)

In the next test the target is T2, KDM5B (PLU-1) (Homo sapiens, UniProt Q9UGL1).
T2 sequence (Q9UGL1 1-809): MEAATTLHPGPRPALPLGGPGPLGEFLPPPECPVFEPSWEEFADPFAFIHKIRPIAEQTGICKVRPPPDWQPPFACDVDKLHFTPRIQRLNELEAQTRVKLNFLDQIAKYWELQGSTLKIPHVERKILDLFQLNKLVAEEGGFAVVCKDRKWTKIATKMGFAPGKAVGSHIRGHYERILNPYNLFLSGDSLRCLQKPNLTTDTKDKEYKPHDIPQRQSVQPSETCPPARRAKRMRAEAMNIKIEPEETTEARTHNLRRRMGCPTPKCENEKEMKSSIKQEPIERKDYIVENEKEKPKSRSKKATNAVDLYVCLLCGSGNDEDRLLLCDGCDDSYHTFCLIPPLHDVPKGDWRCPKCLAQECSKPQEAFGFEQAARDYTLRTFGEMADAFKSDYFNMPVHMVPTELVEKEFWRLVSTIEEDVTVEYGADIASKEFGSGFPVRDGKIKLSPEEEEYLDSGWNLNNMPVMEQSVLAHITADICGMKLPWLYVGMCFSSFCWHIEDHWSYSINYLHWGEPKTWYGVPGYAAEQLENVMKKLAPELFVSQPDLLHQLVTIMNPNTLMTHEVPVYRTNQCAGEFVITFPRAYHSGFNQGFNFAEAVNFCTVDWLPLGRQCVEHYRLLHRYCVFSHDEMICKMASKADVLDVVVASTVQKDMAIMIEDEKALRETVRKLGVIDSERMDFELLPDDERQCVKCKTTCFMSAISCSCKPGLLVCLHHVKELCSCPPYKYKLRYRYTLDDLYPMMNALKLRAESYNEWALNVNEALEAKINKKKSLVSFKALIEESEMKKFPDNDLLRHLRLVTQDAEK
As to the kind of experiment: Histone lysine demethylase AlphaLISA assay, KDM5B. Format: biochemical. As for the experimental part: as §1, §2
H3K4M3B: H-ART(Kme3)QTARKSTGGKAPRKQLA-NH-Biotin (Caslo, Denmark) […]
as §3

The target of another test is KDM6A (UTX) (Homo sapiens, UniProt O15550). As to the kind of experiment: Histone lysine demethylase AlphaLISA assay, KDM6A. Format: biochemical. As for the experimental part: as §1, §2
BK27M3: Biotin-ATKAAR(Kme3)SAPATGGVKKPHRY-NH2? (Caslo, Denmark) […]
as §3

The subject of another test is MCF7 cells. As to the kind of experiment: Cell proliferation assay MCF7. Conditions: MCF7 human breast cancer cells; 120 hours; ATPlite 1 Step. Format: cell-based. As for the experimental part:
MCF7 cells were seeded in multi well plates at a density optimized to give approximately 90% confluent cells at the time of harvest. Cells were incubated for 24 hours before addition of compound. Compounds were diluted in complete medium and added to the plates in duplicates. The final concentration of DMSO was maximum 0.5%. Complete medium used was DMEM with GlutaMAX containing 10% FBS and pen/strep.
120 hours after addition of compounds, the plates were harvested and analyzed by ATPlite 1 Step (Perkin Elmer, cat no 6016739) according to the manufactures recommendation.

The next test addresses T3, KDM4C (JMJD2C) (Homo sapiens, UniProt Q9H3R0).
T3 sequence (Q9H3R0 1-349): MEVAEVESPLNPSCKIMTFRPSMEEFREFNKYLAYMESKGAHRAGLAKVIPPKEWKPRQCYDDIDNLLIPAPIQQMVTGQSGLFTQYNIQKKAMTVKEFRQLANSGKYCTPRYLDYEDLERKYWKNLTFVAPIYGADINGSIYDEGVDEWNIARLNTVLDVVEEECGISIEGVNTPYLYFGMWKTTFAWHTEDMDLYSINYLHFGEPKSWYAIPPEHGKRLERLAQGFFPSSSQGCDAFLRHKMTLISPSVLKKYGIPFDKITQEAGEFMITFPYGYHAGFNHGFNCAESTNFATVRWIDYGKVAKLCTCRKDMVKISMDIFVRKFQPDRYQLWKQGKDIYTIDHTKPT
Nature of the test: Histone lysine demethylase AlphaLISA assay, KDM4C. The format is biochemical. As to the method:
as §1
Enzymes are dissolved in enzyme buffer and incubated for 10 min before being added to 3% DMSO solutions of compounds in enzyme buffer. Incubated for another 10 minutes, before substrate solution is added and the reaction mixture is incubated at room temperature. 10 μL acceptor beads, suspended in Epigenetic Buffer (Perkin Elmer AL008) from stock, are added and the suspension is incubated in the dark at room temperature, before a suspension of streptavidin donor beads (Perkin Elmer 6760002) in Epigenetic Buffer is added. After incubation at room temperature in the dark the plates are read.
BK9M3: Biotin-ARTKQTAR(KMe3)STGGKAPRKQ-NH2 (Caslo, Denmark) […]
as §3

The mark [1] stands for this setting: read-out: KDM5B HDME Inhibition IC50.
Setting [2] is: read-out: KDM6A HDME Inhibition IC50.
Setting [3] is: read-out: KDM4C HDME Inhibition IC50.

Read-outs that look alike come from different tables or passages of the source. Some results are limits rather than exact numbers.

Chain of KDM6A (UTX) (O15550 919-1401): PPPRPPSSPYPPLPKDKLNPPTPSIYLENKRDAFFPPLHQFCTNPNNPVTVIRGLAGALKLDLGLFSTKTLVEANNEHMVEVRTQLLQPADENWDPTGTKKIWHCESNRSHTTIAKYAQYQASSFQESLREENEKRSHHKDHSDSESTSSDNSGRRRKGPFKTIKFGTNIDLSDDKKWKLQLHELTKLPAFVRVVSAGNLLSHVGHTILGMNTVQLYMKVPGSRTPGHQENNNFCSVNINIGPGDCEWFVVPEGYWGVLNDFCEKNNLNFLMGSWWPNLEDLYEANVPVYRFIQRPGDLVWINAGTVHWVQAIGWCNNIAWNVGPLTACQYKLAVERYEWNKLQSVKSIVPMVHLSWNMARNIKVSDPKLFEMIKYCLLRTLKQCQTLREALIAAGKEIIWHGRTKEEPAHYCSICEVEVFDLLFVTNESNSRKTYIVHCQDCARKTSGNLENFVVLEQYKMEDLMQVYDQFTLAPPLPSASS

Regarding `CCN(CCN(C)C)C(=O)CNCc1cc(/C=N/CC(O)CN(C)C)ccn1` (centres unmarked) [Compound 86, 2-[({4-[{[3-(dimethylamino)-2-hydroxypropyl]imino}-methyl]pyridin-2-yl}methyl)amino]-N-[2-(dimethylamino)-ethyl]-N-ethylacetamide], the IC50 at KDM2B (FBXL10) is above 2.5 µM; on KDM5B (PLU-1) (setting [1]) it was below 0.25 µM; on KDM6A (UTX) (setting [2]), above 2.5 µM. Also, the EC50 with MCF7 cells is below 0.25 µM.

With `CCN(CC)CCCCNCc1cc(/C=N/CC(C)(C)CO)ccn1` [Compound 76, 3-[{[2-({[4-(diethylamino)-butyl]amino}-methyl)pyridin-4-yl]methylidene}-amino]-2,2-dimethylpropan-1-ol], the values for the IC50 at KDM2B (FBXL10), on KDM4C (JMJD2C) (setting [3]) and on KDM5B (PLU-1) (setting [1]) were above 2.5 µM, above 2.5 µM and 0.25 to 2.5 µM, respectively. In the test with MCF7 cells, this compound gave an EC50 below 0.25 µM.

On to `CCN(CCN(C)C)C(=O)CNCc1cc(C2NCC(C)(C)CO2)ccn1` (centres unmarked) [Compound 87, 2-({[4-(5,5-dimethyl-1,3-oxazinan-2-yl)pyridin-2-yl]methyl}amino)-N-[2-(dimethylamino)-ethyl]-N-ethylacetamide], for which the results for the IC50 at KDM2B (FBXL10), at KDM4C (JMJD2C) (setting [3]) and at KDM5B (PLU-1) (setting [1]) were above 2.5 µM, 0.25 to 2.5 µM and below 0.25 µM, respectively. In the test with MCF7 cells, the EC50 was below 0.25 µM.

In the case of `CCN(CCN(C)C)C(=O)CNCc1cc(/C=N/CCCO)ccn1` [Compound 78, N-[2-(dimethylamino)-ethyl]-N-ethyl-2-[({4-[[(3-hydroxypropyl)imino]-methyl]pyridin-2-yl}-methyl)amino]-acetamide], the IC50 is above 2.5 µM at KDM2B (FBXL10), 0.25 to 2.5 µM at KDM4C (JMJD2C) (setting [3]) and below 0.25 µM at KDM5B (PLU-1) (setting [1]). This compound also came in with an EC50 in the test with MCF7 cells below 0.25 µM.

For the compound `CN(C)C1CCC(CNCc2cc(C=O)ccn2)C1` (centres unmarked) [Compound 117, 2-[({[3-(dimethylamino)-cyclopenyl]methyl}-amino)methyl] pyridine-4-carbaldehyde], the IC50 on KDM4C (JMJD2C) (setting [3]) was 0.25 to 2.5 µM; on KDM5B (PLU-1) (setting [1]), below 0.25 µM; at KDM6A (UTX) (setting [2]) it was above 2.5 µM. This compound also returned an EC50 in the test on MCF7 cells of 0.25 to 2.5 µM.

Turning to `CCN(CC)CCCCNCc1cc(/C=N/C(C)CO)ccn1` (centres unmarked) [Compound 73, 2-[{[2-({[4-(diethylamino)-butyl]amino}-methyl)pyridin-4-yl]methylidene}-amino]propan-1-ol], the IC50 at KDM4C (JMJD2C) (setting [3]) is above 2.5 µM; at KDM5B (PLU-1) (setting [1]), below 0.25 µM. This compound registered an EC50 in the test with MCF7 cells below 0.25 µM.

Consider `CCN(CC)CCCCNCc1cc(/C=N/C(CO)c2ccccc2)ccn1` (centres unmarked) [Compound 75, 2-[{[2-({[4-(diethylamino)-butyl]amino}-methyl)pyridin-4-yl]methylidene}-amino]-2-phenylethan-1-ol], for which the IC50 on KDM4C (JMJD2C) (setting [3]) is above 2.5 µM; at KDM5B (PLU-1) (setting [1]), below 0.25 µM. The EC50 in the test with MCF7 cells is below 0.25 µM.

For `CCOC(=O)c1ccccc1OC(=O)NCc1ccnc(CNCC(=O)N(CC)CCN(C)C)c1` [Compound 29, ethyl 2-({[(2-{[({[2-(dimethylamino)-ethyl](ethyl)-carbamoyl}methyl)-amino]methyl}pyridin-4-yl)methyl]-carbamoyl}-oxy)benzoate], the half-maximal inhibitory concentration (IC50) was above 2.5 µM against KDM4C (JMJD2C), 0.25 to 2.5 µM on KDM5B (PLU-1) and above 2.5 µM against KDM6A (UTX). Moreover, the EC50 with MCF7 cells was in the range of 0.25 to 2.5 µM.

For `CCN(CC)C(=O)CNCc1cc(/C=N/CCc2ccc(C)cc2)ccn1` [Compound 69, N,N-diethyl-2-[({4-[{[2-(4-methylphenyl)-ethyl]imino}-methyl]pyridin-2-yl}methyl)amino]-acetamide], the figures for the IC50 on KDM4C (JMJD2C) (setting [3]), on KDM5B (PLU-1) (setting [1]) and on KDM6A (UTX) (setting [2]) were 0.25 to 2.5 µM, below 0.25 µM and above 2.5 µM, respectively. Moreover, the EC50 in the test with MCF7 cells is above 2.5 µM.

Regarding `CCN(CC)CCCCNCc1cc(/C=N/CCCO)ccn1` [Compound 71, 3-[{[2-({[4-(diethylamino)-butyl]amino}methyl)pyridin-4-yl]methylidene}amino]-propan-1-ol], the IC50 at KDM4C (JMJD2C) (setting [3]) is above 2.5 µM; on KDM5B (PLU-1) (setting [1]), below 0.25 µM; at KDM6A (UTX) (setting [2]), above 2.5 µM. The compound also registered a 50% effective concentration (EC50) in the test with MCF7 cells below 0.25 µM.
